Consider 2 molecules from patent US12201618B2 (Biohaven Therapeutics Ltd., priority 2018, dated 2025).

For data set [1], the system named is patients diagnosed with Alzheimer's disease of mild-to-moderate severity. Nature of the data set: T2 Protect AD Phase 2/3 trial: ADAS-Cog 11. The data set is classed as in vivo, human. As to conditions: for ADAS-Cog Total Score Week 48 Model Estimates LSMean (SE): Week 48, change from baseline; for ADAS-Cog Total Score Week 48 Model Estimates LSMean (SE) Difference: Week 48, placebo vs troriluzole.
Source text: (§1) The ADAS-Cog 11 evaluates memory (word recall, word recognition), reasoning (following commands), language (naming, comprehension), orientation, ideational praxis (placing a letter in an envelope) and constructional praxis (copying geometric designs). Ratings of spoken language, language comprehension, word finding difficulty, and ability to remember test instructions are also obtained. The test is scored in terms of errors, with higher scores reflecting poorer performance and greater impairment. Scores can range from 0 (best) to 70 (worse).
The primary efficacy endpoint is the within-participant change in ADAS-Cog 11 from baseline to week 48, compared between the treatment group and the placebo group.
as §1, with “11 (Rosen, Mohs, & Davis, 1984) is a structured scale that” for “11”
(§2) The T2 Protect AD trial has been conducted, which is a Phase 2/3, randomized, double-blind, placebo-controlled study evaluating the efficacy and safety of troriluzole in patients diagnosed with Alzheimer's disease of mild-to-moderate severity (Mini-Mental State Examination [MMSE] scores of 14-24; mild: 20-24, moderate: 14-19).

The test system is the same in data set [2]. The data set can be described thus: T2 Protect AD Phase 2/3 trial: CDR-Sum of Boxes. Format: in vivo, human. As to conditions: for CDR01-Sum of Boxes Week 48 Model Estimates LSMean (SE): Week 48, change from baseline; for CDR01-Sum of Boxes Week 48 Model Estimates LSMean (SE) Difference: Week 48, placebo vs troriluzole.
Source text: The CDR-SOB (Hughes, Berg, Danziger, Coben, & Martin, 1982) is a validated composite rating of cognition and everyday functioning used in longitudinal AD research which incorporates both informant input and direct assessment of performance. It assesses through semi structured interview 3 cognitive domains including memory, orientation, and judgement/problem solving and 3 everyday functional domains including community affairs, home and hobbies and personal care. There are 5 levels of impairment from none CDR=0 to severe CDR=3. The individual domain scores are added to create a sum of the box scores.
as §2

The test system is the same in data set [3]. Nature of the data set: T2 Protect AD Phase 2/3 trial: volumetric hippocampal MRI. The data set is classed as in vivo, human. The following applies: for Hippocampal Volume Change Week 48 Model Estimates LSMean (SE) Difference: Week 48, placebo vs troriluzole.
Source text: vMRI allows the in vivo assessment of brain structure volume and provides a measure of atrophy rate. […] Atrophy of the medial temporal lobe, including hippocampus and entorhinal cortex, has long been described in vMRI studies of AD. Hippocampal volume derived from MRI correlates with histological hippocampal volume and degree of neuronal loss and AD pathology, and entorhinal cortical thickness change appears to be an early and sensitive indicator of neurodegeneration associated with AD (Holland et al., 2009; Jack et al., 2004).
Participants will undergo vMRI scans of the brain at screening, week 24 and week 48 in order to assess for changes in brain volumes that may be associated with clinical change due to treatment with BHV-4157.
Volumetric MRI scans will use the same imaging protocol, which will include a localizer scan, a 3D T1weighted sagittal acquisition (MPRAGE or IR-SPGR), a T2-weighted FLAIR axial acquisition, a T2* gradient recalled echo axial acquisition for magnetic susceptibility, and a diffusion weighted axial acquisition to assess for restricted diffusion.
Images will be checked for image quality and adherence to scanning protocols. 3D T1-weighted datasets passing quality checks will be corrected for spatial distortion and for intensity variation. Screening and follow-up datasets for each participant will be spatially registered to one another using rigid-body registration followed by nonlinear registration and neuroanatomic parcellation to quantify whole-brain and subregional volumetric change on a patient-by patient basis.
Whole brain volume (WBV, excluding cerebellum), bilateral ventricular volume and bilateral hippocampal volume will be measured. Quantitative anatomical regional change (Quarc) will be used as the computational MR image processing application. Detail for the statistical computations is given in the Statistical Analytical Plan (SAP).
as §2

For data set [4] the test system is unchanged. The data set can be described thus: T2 Protect AD Phase 2/3 trial: neuropsychiatric inventory (NPI). The data set is classed as in vivo, human. The following applies: after 48 weeks.
Source text: The NPI is a well-validated, reliable, multi-item instrument to assess psychopathology in AD dementia based on the results of an interview with the study partner (Cummings, 1997). The NPI evaluates both the frequency and severity of 10 neuropsychiatric features, including delusions, hallucinations, agitation/aggression, dysphoria, anxiety, euphoria, apathy, disinhibition, irritability and lability, and aberrant motor behavior, as well as evaluates sleep and appetite/eating disorders. Frequency assessments range from 1 (occasionally, less than once per week) to 4 (very frequently, once or more per day or continuously). Severity assessments range from 1 (mild) to 3 (severe). The score for each subscale is the product of severity and frequency and the total score is the sum of all subscales.
as §2

For data set [5] the following is noted: taken with meals; cited from earlier work.
The mark [6] stands for this setting: mild-to-moderate AD, all patients, Week 48.
[7] abbreviates: mild-to-moderate AD, all patients.

As for `CN(CC(=O)Nc1nc2ccc(OC(F)(F)F)cc2s1)C(=O)CNC(=O)CN` [Troriluzole], in data set [1] (Mild AD Patients Only, Week 48), the “ADAS-Cog Total Score Week 48 Analysis Value Mean (SD)” value is on record as 26.2 (8.22), the “ADAS-Cog Total Score Week 48 Analysis Value Median” value was determined as 26.0, the “ADAS-Cog Total Score Week 48 Change from Baseline Mean (SD)” value is 3.9 (5.90) and the “ADAS-Cog Total Score Week 48 Change from Baseline Median” value is reported as 4.0. In data set [1] (Mild AD Patients Only), the “ADAS-Cog Total Score Week 48 Model Estimates LSMean (SE)” value is on record as 4.2 (0.76) and the “ADAS-Cog Total Score Week 48 Model Estimates LSMean (SE) Difference” value is 0.7 (1.02). In addition, the “ADAS-Cog11 score LS mean change difference versus placebo” value in data set [1] (mild AD, after 48 weeks, 95% CI: −1.4, 2.7, p-value=0.5233) is listed as 0.7. In data set [1] (mild AD, after 48 weeks, n=65), the “LS mean change from baseline on the ADAS-Cog11 score” value came to 4.2 points. Further, in data set [1] (setting [6]), the “ADAS-Cog Total Score Week 48 Analysis Value Median” value was 30.0, the “ADAS-Cog Total Score Week 48 Change from Baseline Mean (SD)” value was 5.8 (7.40) and the “ADAS-Cog Total Score Week 48 Change from Baseline Median” value was 6.0. Also, the “ADAS-Cog Total Score Week 48 Analysis Value Mean (SD)” value in data set [1] (mild-to-moderate AD, all patients, Week 48, 280 mg once daily) is recorded as 31.5 (10.82). For the same molecule, in data set [1] (setting [7]), the “ADAS-Cog Total Score Week 48 Model Estimates LSMean (SE)” value is 6.7 (0.70) and the “ADAS-Cog Total Score Week 48 Model Estimates LSMean (SE) Difference” value is reported as 0.0 (0.93). In data set [2] (Mild AD Patients Only), the “CDR01-Sum of Boxes Week 48 Analysis Value Mean (SD)” value is 7.1 (2.79), the “CDR01-Sum of Boxes Week 48 Analysis Value Median” value was 6.5, the “CDR01-Sum of Boxes Week 48 Change from Baseline Mean (SD)” value was 1.4 (2.06) and the “CDR01-Sum of Boxes Week 48 Change from Baseline Median” value is listed as 1.0. In data set [2] (Mild AD Patients Only), the “CDR01-Sum of Boxes Week 48 Model Estimates LSMean (SE)” value is reported as 1.7 (0.29) and the “CDR01-Sum of Boxes Week 48 Model Estimates LSMean (SE) Difference” value was −0.3 (0.40). In data set [2] (setting [7]), the “CDR01-Sum of Boxes Week 48 Analysis Value Mean (SD)” value is 8.3 (3.24), the “CDR01-Sum of Boxes Week 48 Analysis Value Median” value amounted to 8.0, the “CDR01-Sum of Boxes Week 48 Change from Baseline Mean (SD)” value is given as 1.9 (2.37) and the “CDR01-Sum of Boxes Week 48 Change from Baseline Median” value came out at 2.0. Besides, in data set [2] (setting [7]), the “CDR01-Sum of Boxes Week 48 Model Estimates LSMean (SE)” value is listed as 2.1 (0.21) and the “CDR01-Sum of Boxes Week 48 Model Estimates LSMean (SE) Difference” value is on record as −0.2 (0.28). Moreover, in data set [3] (Mild AD Patients Only), the “Hippocampal Volume Change Week 48 Analysis Value Mean (SD)” value is −1.1 (1.61), the “Hippocampal Volume Change Week 48 Analysis Value Median” value is −0.9, the “Hippocampal Volume Change Week 48 Model Estimates LSMean (SE)” value is −1.1 (0.27) and the “Hippocampal Volume Change Week 48 Model Estimates LSMean (SE) Difference” value was −0.5 (0.38). In addition, the “hippocampal volume LS mean percent deformation change difference versus placebo” value in data set [3] (mild AD, after 48 weeks, 95% CI: −1.2, 0.3, p-value=0.2240) is −0.5%. Moreover, the “LS mean percent deformation change from baseline hippocampal volume” value in data set [3] (mild AD, after 48 weeks, n=48) was −1.1%. In data set [3] (setting [7]), the “Hippocampal Volume Change Week 48 Analysis Value Mean (SD)” value is given as −1.1 (1.50), the “Hippocampal Volume Change Week 48 Analysis Value Median” value was −0.9, the “Hippocampal Volume Change Week 48 Model Estimates LSMean (SE)” value is on record as −1.1 (0.18) and the “Hippocampal Volume Change Week 48 Model Estimates LSMean (SE) Difference” value is 0.0 (0.26). For the same molecule, in data set [4] (mild AD, 95% CI: −5.99, 1.78, p-value=0.286), the “NPI score LS mean change difference versus placebo” value is −2.1. Moreover, in data set [4] (mild AD, n=62), the “LS mean change from baseline on the NPI score” value is recorded as 2.1 points. Besides, the “NPI score LS mean change difference versus placebo” value in data set [4] (mild-to-moderate AD, 95% CI: −4.08, 1.10, p-value=0.258) is listed as −1.5. In data set [4] (mild-to-moderate AD, n=120), the “LS mean change from baseline on the NPI score” value stood at 2.3 points.

As for `Nc1nc2ccc(OC(F)(F)F)cc2s1` [Riluzole, 6-(trifluoromethoxy)benzothiazol-2-amine], in data set [5], the “food effect on exposure” value was “reduced exposure when taken with meals”.
